We go through 24 molecules from patent US8829200B2, “Benzimidazole inhibitors of leukotriene production” (Boehringer Ingelheim International GmbH, priority 2010, dated 2014).

Assay [1] addresses recombinant human FLAP protein (Homo sapiens (Human), UniProt P20292). Description: FLAP binding assay (Scintillation Proximity Assay). To be noted: displacement of [125I]L-691,831, membranes of sf9 cells expressing human FLAP; read-out: SPA IC50. The procedure:
Compounds are assessed for the ability to bind to FLAP in a binding assay that measures compound-specific displacement of an iodinated (^125I) FLAP inhibitor via a Scintillation Proximity Assay format (adapted from S. Charleson et al., Mol. Pharmacol., 1992, 41, 873-879).
Cell pellets produced from sf9 insect cells expressing recombinant human FLAP protein are resuspended in buffer A [15 mM Tris-HCl (pH 7.5), 2 mM MgCl2, 0.3 mM EDTA, 1 mM PMSF]. The cells are lysed with a Dounce homogenizer and the material is centrifuged at 10,000×g for 10 minutes. The supernatant is then collected and centrifuged at 100,000×g for 60 minutes. To prepare membrane protein for an assay, an aliquot of the 100,000×g pellet is resuspended in 1 ml of buffer A, Dounce homogenized, and finally subjected to polytron mixing (30 seconds). Membrane protein (25 μl, 5 μg) is mixed with WGA SPA beads (Amersham) and stirred for 1 h. To an assay plate (Perkin Elmer FlexiPlate) is added 25 μl of test compound prepared in Binding buffer [100 mM Tris (pH 7.5), 140 mM NaCl, 5% glycerol, 2 mM EDTA, 0.5 mM TCEP, 0.05% Tween 20], 25 μl of [^125I]L-691,831 (an iodinated analog of MK-591, Charleson et al. Mol. Pharmacol., 41, 873-879, 1992) and finally 50 μl of the bead/protein mixture. (final concentrations: beads, 200 μg/well; protein, 5 μg/well; [^125I] probe, 0.08 nM/well (17 nCi/well). The plates are shaken for 2 h before reading on a Microbeta plate reader. Non-specific binding is determined by the addition of 10 μM cold L-691,831 compound.

Assay [2] concerns synthesis of LTB4 in human whole blood. Description: human whole blood LTB4 production inhibition assay. It counts as cell-based. To be noted: heparinized human whole blood, calcimycin-stimulated, plasma LTB4; read-out: hWB IC50. On the procedure: Compounds are additionally tested in a human whole blood assay to determine their ability to inhibit the synthesis of LTB4 in a cellular system. Compounds are combined with heparinized human whole blood and incubated for 15 minutes at 37° C. Calcimycin ([…], prepared in phosphate-buffered saline, pH 7.4) is then added and the mixture is incubated for another 30 minutes at 37° C. The samples are centrifuged for 5 min at low speed (1500×g) and the plasma layer is removed. Plasma LTB4 concentrations are then measured using an antibody-based homogenous time-resolved fluorescence method (CisBio, Bedford, Mass.).

Chain of recombinant human FLAP protein (P20292 whole entry): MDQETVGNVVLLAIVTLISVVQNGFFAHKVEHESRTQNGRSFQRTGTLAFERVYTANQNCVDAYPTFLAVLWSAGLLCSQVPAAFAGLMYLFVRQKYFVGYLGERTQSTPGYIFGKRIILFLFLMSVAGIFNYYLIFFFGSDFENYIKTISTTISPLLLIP

Turning to `CC(C)(C)n1c(-c2ccccc2C(=O)O)nc2cc(-c3cnc(N)nc3)ccc21` [Example 1, 2-[5-(2-Amino-pyrimidin-5-yl)-1-tert-butyl-1H-benzoimidazol-2-yl]-benzoic acid], the 50% inhibitory concentration (IC50) in assay [1] was found to be 1400 nM.

For `CC(C)(C)n1c(-c2ccccc2C(=O)NC2CC2)nc2cc(-c3cnc(N)nc3)ccc21` [Example 2, 2-[5-(2-Amino-pyrimidin-5-yl)-1-tert-butyl-1H-benzoimidazol-2-yl]-N-cyclopropyl-benzamide], the IC50 in assay [1] was 25.2 nM; in assay [2], 2190 nM.

For `CC(C)(C)n1c(-c2ccccc2C(=O)Nc2ccncc2)nc2cc(-c3cnc(N)nc3)ccc21` [Example 3, 2-[5-(2-Amino-pyrimidin-5-yl)-1-tert-butyl-1H-benzoimidazol-2-yl]-N-pyridin-4-yl-benzamide], the results for the IC50 in assay [1] and in assay [2] were 0.91 nM and 763 nM, respectively.

`CNC(=O)c1ccccc1-c1nc2cc(-c3cnc(N)nc3)ccc2n1C(C)(C)C` [Example 4, 2-[5-(2-Amino-pyrimidin-5-yl)-1-tert-butyl-1H-benzoimidazol-2-yl]-N-methyl-benzamide]: the IC50 in assay [1] worked out at 11.4 nM; in assay [2], 433 nM.

Regarding `CNC(=O)c1cc(F)c(F)cc1-c1nc2cc(-c3cnc(N)nc3)ccc2n1C(C)(C)C` [Example 5, 2-[5-(2-Amino-pyrimidin-5-yl)-1-tert-butyl-1H-benzoimidazol-2-yl]-4,5-difluoro-N-methyl-benzamide], the IC50 in assay [2] was found to be 357 nM.

For `CNC(=O)c1ccc(F)cc1-c1nc2cc(-c3cnc(N)nc3)ccc2n1C(C)(C)C` [Example 6, 2-[5-(2-Amino-pyrimidin-5-yl)-1-tert-butyl-1H-benzoimidazol-2-yl]-4-fluoro-N-methyl-benzamide], the IC50 in assay [1] is 5.07 nM; in assay [2] it was 130 nM.

With `CNC(=O)c1cc(OC)ccc1-c1nc2cc(-c3cnc(N)nc3)ccc2n1C(C)(C)C` [Example 7, 2-[5-(2-Amino-pyrimidin-5-yl)-1-tert-butyl-1H-benzoimidazol-2-yl]-5-methoxy-N-methyl-benzamide], the IC50 amounted to 21.9 nM in assay [1] and 414 nM in assay [2].

For `CNC(=O)c1ccc(C#N)cc1-c1nc2cc(-c3cnc(N)nc3)ccc2n1C(C)(C)C` [Example 8, 2-[5-(2-Amino-pyrimidin-5-yl)-1-tert-butyl-1H-benzoimidazol-2-yl]-4-cyano-N-methyl-benzamide], the values for the IC50 in assay [1] and in assay [2] were 7.4 nM and 94 nM, respectively.

For `CNC(=O)c1ccc(-c2nn[nH]n2)cc1-c1nc2cc(-c3cnc(N)nc3)ccc2n1C(C)(C)C` [Example 9, 2-[5-(2-Amino-pyrimidin-5-yl)-1-tert-butyl-1H-benzoimidazol-2-yl]-N-methyl-4-(2H-tetrazol-5-yl)-benzamide], the IC50 was 111 nM in assay [1] and above 5000 nM in assay [2].

Consider `CC(C)(C)n1c(-c2cc(C#N)ccc2C(=O)NC#N)nc2cc(-c3cnc(N)nc3)ccc21` [Example 10, 2-[5-(2-Amino-pyrimidin-5-yl)-1-tert-butyl-1H-benzoimidazol-2-yl]-4-cyano-N-cyano-benzamide], for which, in assay [1], the IC50 was determined as 6.09 nM.

For the molecule `CC(C)(C)n1c(-c2cc(C#N)ccc2C(=O)NS(C)(=O)=O)nc2cc(-c3cnc(N)nc3)ccc21` [Example 11, N-{2-[5-(2-Amino-pyrimidin-5-yl)-1-tert-butyl-1H-benzoimidazol-2-yl]-4-cyano-benzoyl}-methanesulfonamide], the IC50 in assay [1] came to 55.6 nM.

In the case of `CN(C)C(=O)c1ccc(F)c(-c2nc3cc(-c4cnc(N)nc4)ccc3n2C(C)(C)C)c1` [Example 12, 3-[5-(2-Amino-pyrimidin-5-yl)-1-tert-butyl-1H-benzoimidazol-2-yl]-4-fluoro-N,N-dimethyl-benzamide], the IC50 is 610 nM in assay [1] and above 5000 nM in assay [2].

Turning to `CC(C)(C)n1c(-c2ccccc2C(N)=O)nc2cc(-c3cnc(N)nc3)ccc21` [Example 14, 2-[5-(2-Amino-pyrimidin-5-yl)-1-tert-butyl-1H-benzoimidazol-2-yl]-benzamide], in assay [2], the IC50 was found to be 1150 nM.

Take `CC(C)(C)n1c(-c2cc(C(=O)O)ccc2F)nc2cc(-c3cnc(N)nc3)ccc21` [Example 15, 3-[5-(2-Amino-pyrimidin-5-yl)-1-tert-butyl-1H-benzoimidazol-2-yl]-4-fluoro-benzoic acid]: the half-maximal inhibitory concentration (IC50) in assay [1] was 220 nM; in assay [2] it was above 5000 nM.

As for `CC(C)(C)n1c(-c2cccc(C(=O)O)c2)nc2cc(-c3cnc(N)nc3)ccc21` [Example 16, 3-[5-(2-Amino-pyrimidin-5-yl)-1-tert-butyl-1H-benzoimidazol-2-yl]-benzoic acid], the IC50 in assay [1] was 645 nM.

For the molecule `COC(=O)c1ccccc1-c1nc2cc(-c3cnc(N)nc3)ccc2n1C(C)(C)C` [Example 17, 2-[5-(2-Amino-pyrimidin-5-yl)-1-tert-butyl-1H-benzoimidazol-2-yl]-benzoic acid methyl ester], the concentration for half-maximal inhibition (IC50) in assay [1] came to 22 nM.

Regarding `CC(C)(C)n1c(-c2ccccc2C(=O)NCC2CCCO2)nc2cc(-c3cnc(N)nc3)ccc21` (stereo not drawn) [Example 18, 2-[5-(2-Amino-pyrimidin-5-yl)-1-tert-butyl-1H-benzoimidazol-2-yl]-N-(tetrahydro-furan-2-ylmethyl)-benzamide], the figures for the IC50 in assay [1] and in assay [2] were 18.8 nM and 2440 nM, respectively.

For `COCCNC(=O)c1ccccc1-c1nc2cc(-c3cnc(N)nc3)ccc2n1C(C)(C)C` [Example 19, 2-[5-(2-Amino-pyrimidin-5-yl)-1-tert-butyl-1H-benzoimidazol-2-yl]-N-(2-methoxy-ethyl)-benzamide], the values for the IC50 in assay [1] and in assay [2] were 43.8 nM and 2870 nM, respectively.

In the case of `CC(C)(C)n1c(-c2ccccc2C(=O)Nc2ccccn2)nc2cc(-c3cnc(N)nc3)ccc21` [Example 20, 2-[5-(2-Amino-pyrimidin-5-yl)-1-tert-butyl-1H-benzoimidazol-2-yl]-N-pyridin-2-yl-benzamide], the IC50 was 2.2 nM in assay [1] and 2700 nM in assay [2].

Take `CN(C(=O)c1ccccc1-c1nc2cc(-c3cnc(N)nc3)ccc2n1C(C)(C)C)c1ccccn1` [Example 27, 2-[5-(2-Amino-pyrimidin-5-yl)-1-tert-butyl-1H-benzoimidazol-2-yl]-N-methyl-N-pyridin-2-yl-benzamide]: in assay [1], the IC50 is 180 nM.

Take `CCNC(=O)c1ccc(F)cc1-c1nc2cc(-c3cnc(N)nc3)ccc2n1C(C)(C)C` [Example 30, 2-[5-(2-Amino-pyrimidin-5-yl)-1-tert-butyl-1H-benzoimidazol-2-yl]-N-ethyl-4-fluoro-benzamide]: the IC50 in assay [2] turned out to be 413 nM.

With `CC(C)(C)n1c(-c2cc(F)ccc2C(=O)Nc2cccnc2)nc2cc(-c3cnc(N)nc3)ccc21` [Example 31, 2-[5-(2-Amino-pyrimidin-5-yl)-1-tert-butyl-1H-benzoimidazol-2-yl]-4-fluoro-N-pyridin-3-yl-benzamide], in assay [2], the IC50 worked out at 1950 nM.

As for `CC(C)(C)n1c(-c2cc(F)ccc2C(=O)NCc2cccnc2)nc2cc(-c3cnc(N)nc3)ccc21` [Example 32, 2-[5-(2-Amino-pyrimidin-5-yl)-1-tert-butyl-1H-benzoimidazol-2-yl]-4-fluoro-N-pyridin-3-ylmethyl-benzamide], the IC50 in assay [2] was 939 nM.

As to `COc1cncc(-c2ccc3c(c2)nc(-c2cccc(C(N)=O)c2)n3C(C)(C)C)c1` [Example 35, 3-[1-tert-Butyl-5-(5-methoxy-pyridin-3-yl)-1H-benzoimidazol-2-yl]-benzamide], the IC50 in assay [1] was determined as 4700 nM.
